{"source": "patent US20260365621A1", "about": "“Non-Hallucinogenic Tryptamine Compounds” (priority 2022, published 2026)", "key": {"5-HT2A [1]": {"test_system": "5-HT2A", "settings": "Central Nervous System (CNS); cited from earlier work"}, "5-HT2A [2]": {"test_system": "5-HT2A", "settings": "Central Nervous System (CNS); cited from earlier work", "remark": "listed apart in the source"}, "[3]": {"test_system": "head twitch response in C57BL/6J male mice", "assay_type": "in vivo", "procedure": "The study of example 2 was performed using C57BL/6J male mice (25-30 g; Envigo, Milan, Italy). The animals were divided into groups of 10 animals each: (a) control, (b) vehicle, and (c) combinations of psilocyn (1 mg/kg) and pinoline (3 or 10 mg/kg). The treated mice were left to fast in the 12 hours prior to administration. Psilocyn and pinoline were resuspended in a solution of EtOH 20%. Mice were subjected to a singular oral administration of compounds. The vehicle group was given the EtOH 20% solution.\nAfter administration, the animals were placed individually in transparent plexiglass cages. […] (See Halberstadt, Adam L., et al. “Differential contributions of serotonin receptors to the behavioral effects of indoleamine hallucinogens in mice.” Journal of psychopharmacology 25.11 (2011): 1548-1561.) (Sun, Yina, et al. “Effects of low-doses of methamphetamine on d-fenfluramine-induced head-twitch response (HTR) in mice during ageing and c-fos expression in the prefrontal cortex.” BMC neuroscience 24.1 (2023): 1-17.)."}, "[4]": {"test_system": "mechanical allodynia / paw-withdrawal threshold after CAR injection", "experiment": "Mechanical allodynia, Von Frey hair test after CAR injection", "settings": "Psilocin alone at 3 and 10 mg/Kg", "description": "A study was performed using male Sprague-Dawley rats (200-250 g; Envigo, Milan, Italy). Food and water were accessible ad libitum. Rats were concurrently subjected to a singular subplantar injection of CAR (100 μL of saline solution containing 1% CAR).\nMechanical allodynia was evaluated using a dynamic plantar Von Frey hair aesthesiometer on time 0 and 1, 2, 3, 4, 5, and 6 days post-injection (Bio-EVF4; Bioseb, Vitrolles, France) as previously described (D'Amico, R.; Fusco, R.; Siracusa, R.; Impellizzeri, D.; Peritore, A. F.; Gugliandolo, E.; Interdonato, L.; Sforza, A. M.; Crupi, R.; Cuzzocrea, S.; et al. Inhibition of P2X7 Purinergic Receptor Ameliorates Fibromyalgia Syndrome by Suppressing NLRP3 Pathway. Int. J. Mol. Sci. 2021, 22, 6471. https://doi.org/10.3390/ijms22126471). The device encloses a force transducer furnished with a plastic tip. When pressure is applied to the tip, the force applied is recorded. The tip was applied to the plantar area of the hind leg, and a rising upward force was exerted until the paw was withdrawn. The withdrawal threshold was defined as the force, expressed in grams, at which the mouse removed the paw.\nTo investigate whether Psilocin+Pinoline were able to reduce pain associated with CAR injection, a Von Frey test was performed."}, "CAR-induced paw edema": {"test_system": "CAR-induced paw edema", "experiment": "Carrageenan (CAR)-induced rat paw edema (plethysmometer)", "settings": "Psilocin alone at 3 and 10 mg/Kg", "description": "A study was performed using male Sprague-Dawley rats (200-250 g; Envigo, Milan, Italy). Food and water were accessible ad libitum. Rats were concurrently subjected to a singular subplantar injection of CAR (100 μL of saline solution containing 1% CAR). […] Edema was expressed as the increase in paw volume (mL) after CAR injection relative to the pre-injection value for all animals. Scores were expressed as paw volume difference (mL)."}}, "note": "Read-outs that look alike come from different tables or passages of the source.", "data": [{"smiles": "CN(C)CCc1c[nH]c2cccc(OP(=O)(O)O)c12", "note": "[Psilocybin, 4-phosphoryloxy-N,N-dimethyltryptamine]", "values": [{"measurement": "binding to 5-HT2A receptor", "setting": "5-HT2A [1]", "value": "known to bind"}, {"measurement": "activities caused by 5-HT2A binding in the CNS", "setting": "5-HT2A [2]", "value": "hallucinogenic, anxiolytic, and psychoactive activities"}]}, {"smiles": "COc1ccc2[nH]c3c(c2c1)CCNC3", "note": "[Pinoline, pinoline]", "values": [{"measurement": "effect of pinoline on psilocin activity (head twitch)", "setting": "[3]; pinoline 3 mg/kg with psilocin 1 mg/kg", "value": "prolonged the psilocin (1 mg/kg) activity"}, {"measurement": "effect of pinoline on psilocin activity (head twitch)", "setting": "[3]; pinoline 10 mg/kg with psilocin 1 mg/kg", "value": "prolonged the psilocin (1 mg/kg) activity"}]}, {"smiles": "CN(C)CCc1c[nH]c2cccc(O)c12", "note": "[Psilocin, 4-hydroxy-N,N-dimethyltryptamine]", "values": [{"measurement": "analgesic effects", "setting": "[4]", "value": "anti-inflammatory and analgesic effects"}, {"measurement": "effect in head twitch test, 11-20 minutes", "setting": "[3]; 10 mg/kg alone, after 11-20 minutes from administration", "value": "finished"}, {"measurement": "number of head movements", "setting": "[3]; 10 mg/kg, after 10 minutes from treatment", "value": "important number of head movements"}, {"measurement": "binding to 5-HT2A receptor", "setting": "5-HT2A [1]", "value": "known to bind"}, {"measurement": "anti-inflammatory effects", "setting": "CAR-induced paw edema", "value": "anti-inflammatory and analgesic effects"}, {"measurement": "activities caused by 5-HT2A binding in the CNS", "setting": "5-HT2A [2]", "value": "hallucinogenic, anxiolytic, and psychoactive activities"}]}]}
